One block for each compound: values may come before it.
Key:
[1] = system: ceramide-activated protein phosphatase (CAPP); test: CAPP serine/threonine phosphatase activity in vitro; assay type: biochemical; conditions: myelin basic protein phosphorylated by protein kinase A as substrate
[2] = molecular target: T1, acid ceramidase (Homo sapiens, UniProt Q13510); test: Acid ceramidase activity in vitro at pH 4.5; assay type: biochemical; parameters: Ceramidase activity was determined from total homogenates of HL-60 cells; endogenous in cells; host or cells: HL-60 cells; conditions: pH 4.5, 50 μM C16-ceramide substrate
T1 sequence (Q13510 22-395): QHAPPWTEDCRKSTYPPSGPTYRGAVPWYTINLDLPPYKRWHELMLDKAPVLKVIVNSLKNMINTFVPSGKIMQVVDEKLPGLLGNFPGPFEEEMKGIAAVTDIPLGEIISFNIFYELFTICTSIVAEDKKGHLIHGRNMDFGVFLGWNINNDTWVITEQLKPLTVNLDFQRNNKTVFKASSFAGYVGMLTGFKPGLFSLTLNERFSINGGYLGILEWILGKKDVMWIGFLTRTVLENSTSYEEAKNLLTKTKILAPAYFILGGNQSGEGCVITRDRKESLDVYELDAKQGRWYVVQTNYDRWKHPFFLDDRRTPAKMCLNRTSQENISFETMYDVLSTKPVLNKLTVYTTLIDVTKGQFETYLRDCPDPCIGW
Description: Measurement of ceramidase activity in HL-60 cells. Ceramidase activity in HL-60 cells was measured by a modification of the method of Gatt and Yavin (Methods Enzymol. 14:139 (1969)). Cells were disrupted by sonication in 0.25M sucrose, 1 mM EDTA, and centrifuged at 10,000×g for 10 min after which the supernatant was centrifuged at 100,000×g for 60 min. Ten μl of 1 mM ceramide substrate ([^3 H]C16 -ceramide) was mixed with 100 μl of Triton X-100 (0.1%) in chloroform/methanol, 2:1, and 100 μl of 0.2% sodium cholate in chloroform/methanol, 2:1, after which the solvent was evaporated under N2 at 70° C. To this mixture, 30 μl of water was added and the tubes were heated for 5 s in an 80° C. water bath and then put on ice. Fifty μl of the appropriate buffer depending on desired pH was added followed by 20 μl of 50 mM MgCl2 and 100 μl of cell extract. In experiments using inhibitors, the desired inhibitor was added in ethanol either with the substrate or directly to the final solution. The reaction mixture was incubated for 1 h at 37° C. The ^3 H-fatty acid products of ceramidase were separated by the addition of 2 ml of Dole's solution (isopropyl alcohol, heptane, NaOH), 1.2 ml of heptane, and 1 ml of water. After vortexing and centrifugation, the upper phase was discarded and the lower phase was washed twice with heptane and the upper phase discarded each time. […]

[3] = system: alkaline ceramidase; test: Alkaline ceramidase activity in vitro at pH 9.0; assay type: biochemical, human; conditions: final concentrations up to 50 μM
Description: Measurement of ceramidase activity in HL-60 cells. Ceramidase activity in HL-60 cells was measured by a modification of the method of Gatt and Yavin (Methods Enzymol. 14:139 (1969)). Cells were disrupted by sonication in 0.25M sucrose, 1 mM EDTA, and centrifuged at 10,000×g for 10 min after which the supernatant was centrifuged at 100,000×g for 60 min. Ten μl of 1 mM ceramide substrate ([^3 H]C16 -ceramide) was mixed with 100 μl of Triton X-100 (0.1%) in chloroform/methanol, 2:1, and 100 μl of 0.2% sodium cholate in chloroform/methanol, 2:1, after which the solvent was evaporated under N2 at 70° C. To this mixture, 30 μl of water was added and the tubes were heated for 5 s in an 80° C. water bath and then put on ice. Fifty μl of the appropriate buffer depending on desired pH was added followed by 20 μl of 50 mM MgCl2 and 100 μl of cell extract. In experiments using inhibitors, the desired inhibitor was added in ethanol either with the substrate or directly to the final solution. The reaction mixture was incubated for 1 h at 37° C. The ^3 H-fatty acid products of ceramidase were separated by the addition of 2 ml of Dole's solution (isopropyl alcohol, heptane, NaOH), 1.2 ml of heptane, and 1 ml of water. After vortexing and centrifugation, the upper phase was discarded and the lower phase was washed twice with heptane and the upper phase discarded each time. Finally, 1 ml of 1N H2 SO4, and 2 ml of heptane were added, and after vortexing and centrifugation the upper phase was transferred for counting by liquid scintillation.
In order to evaluate the interactions of D- and L-e-MAPP with ceramidase, in vitro studies we conducted using cytosolic and membrane fractions from HL-60 cells. Initially, ceramidase activity was examined for pH dependence using tritium-labeled C16 -ceramide as substrate. […] The alkaline ceramidase activity was very similar to that described in fibroblasts and cerebellar tissue (Sugita et al, Biochim. Biophys. Acta 398:125 (1975), Wertz and Downing, FEBS Lett. 268:110 (1990)). In initial studies, the ability of this ceramidase to utilize D-e- and L-e-MAPP as substrates was investigated. […] These studies corroborate the cellular metabolism studies showing that L-e-MAPP is a substrate for ceramidase in vitro and in cells.
Next, the ability of D- and L-e-MAPP to interfere with hydrolysis of C16 -ceramide by ceramidase at pH 4.5 and 9.0 was evaluated. Inhibition of ceramidase activity by D-e-MAPP was compared to that by N-oleoylethanolamine, a putative inhibitor of acid ceramidase (Sugita et al, Biochim. Biophys. Acta 398:125 (1975)). […] The effects of N-oleoylethanolamine are consistent with the previously reported Ki of 700 μM (Sugita et al, Biochim. Biophys. Acta 398:125 (1975)). […] In contrast, D-e-MAPP was a relatively poor inhibitor of acid ceramidase with less than 10% inhibition of acid ceramidase at 50 μM (FIG. 6C).

[4] = molecular target: T1, acid ceramidase; conditions: Sugita et al, Biochim. Biophys. Acta 398:125 (1975); read-out: previously reported Ki; cited from earlier work
[5] = molecular target: T2, Glucosylceramide synthase (Homo sapiens, UniProt Q16739); test: Glucocerebroside (glucosylceramide) synthase assay in vitro; assay type: biochemical; conditions: 20 μM
T2 sequence (Q16739 1-394): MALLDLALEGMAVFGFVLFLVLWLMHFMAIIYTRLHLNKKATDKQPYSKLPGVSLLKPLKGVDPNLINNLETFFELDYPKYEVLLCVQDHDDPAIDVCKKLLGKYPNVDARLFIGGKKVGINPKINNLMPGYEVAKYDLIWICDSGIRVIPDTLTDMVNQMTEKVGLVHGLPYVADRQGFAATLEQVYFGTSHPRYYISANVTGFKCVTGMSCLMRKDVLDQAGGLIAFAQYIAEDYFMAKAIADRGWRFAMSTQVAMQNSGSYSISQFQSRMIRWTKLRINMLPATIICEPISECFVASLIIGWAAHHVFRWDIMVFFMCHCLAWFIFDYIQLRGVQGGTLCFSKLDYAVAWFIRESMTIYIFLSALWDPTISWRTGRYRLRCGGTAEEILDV
Description: Glucocerebrosidase and glucocerebroside synthase assays. In vitro assays for gluccerebrosidase and for cerebroside synthase were performed as described (Abe et al, J. Biochem. (Tokyo) 11:191 (1992)).
In addition to ceramidase, inhibition of cerebroside synthase and sphingomyelin synthase or stimulation of sphingomyelinase or cerebrosidase could result in elevations in endogenous ceramide levels. Therefore, the effects of D- and L-e-MAPP were examined on these enzyme activities in vitro and in cells.

[6] = system: HL-60 human myelocytic leukemia cells; test: HL-60 cell proliferation (cell counting); assay type: cell-based; conditions: HL-60, 3 μM D-MAPP plus fumonisin B1, 48 h
Description: Proliferation and cell cycle studies. HL-60 human myelocytic leukemia cells (obtained from the American Type Culture Collection) were grown in RPMI 1640 medium containing 10 fetal calf serum at 37° C. in 5% CO2 incubator. For proliferation and cell cycle studies, cells were resuspended at a density of 2×10^5 cells/ml in serum-free media containing insulin (5 mg/liter) and transferrin (5 mg/liter) and sodium selenite (5 μg/liter) for 2-4 h. Cells were then treated with the indicated compounds. Ethanol concentration was always maintained at less than 0.1%. Cell proliferation was determined by counting cells using a hemacytometer, cell viability was evaluated by trypan blue dye exclusion, and cell cycle analysis was determined by propidium iodide flow cytometry as described (Chao et al, J. Biol. Chem. 267:23459 (1992)).
In structure-function analysis of ceramide-mediated growth suppression using amides of phenylaminoalcohols, D- and L-erythro-MAPP were employed. In these studies, HL-60 cells were treated with 5 μM of either D-e-MAPP or L-e-MAPP, and growth was determined at the indicated time points (FIG. 2A).
Studies were conducted examining the uptake and metabolism of D- and L-MAPP. In the first set of studies, the effect of duration of exposure of HL-60 cells to D-e-MAPP on the bioactivity of the molecule was determined. D-e-MAPP added to cells could be washed off by repeated sedimentation and washing of cells. Thus, after five cycles of washing, less than 10% of D-MAPP remained associated with the cell pellet-compared to unwashed cells (FIG. 5A).

Structure (SMILES): CCCCCCCCCCCCC/C=C/[C@@H](O)[C@H](CO)NC(=O)CCCCC [C6 -ceramide, reference compound]
activation of CAPP in vitro [1]: concentration-dependent stimulation of activity

IC50 [2]: ~500 µM
inhibition of alkaline ceramidase in vitro [3]: less than 10%
Structure (SMILES): CCCCCCCC/C=C\CCCCCCCC(=O)NCCO [N-oleoylethanolamine, reference compound]
Ki [4]: 700 µM

Structure (SMILES): CCCCCCCCCCCCCC(=O)NC(CN1CCOCC1)C(O)c1ccccc1 (stereo not shown) [PMMP, reference compound]
Glucosylceramide synthase activity ([5]; Control 1.009 ± 0.0424): 0.208 ± 0.008 nmol/h/mg protein
inhibition of cerebroside synthase activity ([5]; Table I): significant inhibition

Structure (SMILES): CCCCC(C)C(OC(=O)CC(CC(=O)O)C(=O)O)C(CC(C)CC(O)CCCCC(O)CC(O)C(C)N)OC(=O)CC(CC(=O)O)C(=O)O (stereo not shown) [fumonisin B1, reference compound]
effect on growth suppression by D-e-MAPP [6]: did not inhibit the effects of D-e-MAPP on growth

— patent US5851782A, “Inhibitors of ceramidase” (Duke University, priority 1996, dated 1998)
